Measurements published in patent US20070149446A1, “Tamandarin analogs and fragments thereof and methods of making and using” (The Trustees of the University of Pennsylvania Center for …, priority 2003, published 2007).
Starred links: 1 amine or outer side, 2 acyl side, 3 side chain; linkers in the order of their positions; H or OH if unused. Positions of bridges follow the written chain, without caps; N, C: chain ends. Non-standard residues stand in square brackets, D forms with d. Residues, ends and D or L forms follow the SMILES beside them. Hexanoyl(3S-OH,4R-NH2,5-Me) = CC(C)[C@@H](N[*:1])[C@@H](O)CC(=O)[*:2]; NMe2Nal = CN[C@@H](Cc1ccc2ccccc2c1)C(=O)O; NMeY = CN[C@@H](Cc1ccc(O)cc1)C(=O)O; dNMeL = CN[C@H](CC(C)C)C(=O)O; Hiv = CC(C)[C@H](O)C(=O)O; Lac = C[C@H](O)C(=O)O

Experiments:
HELA = assay: SRB colorimetric cell growth inhibition assay, HELA; conditions: for TGI: HELA cells, total growth inhibition, SRB, 48 hours exposure; for GI50 / CC50: Homo sapiens, HeLa, 48 h; for CC50: read-out: LC50
Protocol: (§1) This form of assay employs 96 well cell culture microplates of […] diameter (Faircloth, 1988; Mosmann, 1983). Most of the cell lines are obtained from American Type Culture Collection (ATCC) derived from different human cancer types.
(§2) Cells are maintained in RPMI 1640 10% FBS, supplemented with 0.1 g/l penicillin and 0.1 g/l streptomycin sulfate and then incubated at 37° C., 5% CO2 and 98% humidity. For the experiments, cells were harvested from subconfluent cultures using trypsin and resuspended in fresh medium before plating.
(§3) Cells are seeded in 96 well microtiter plates, at 5×10^3 cells per well in aliquots of 195 μl medium, and they are allowed to attach to the plate surface by growing in drug free medium for 18 hours. Afterward, samples are added in aliquots of 5 μl in a ranging from 10 to 10-8 μg/ml, dissolved in DMSO/EtOH/PBS (0.5:0.5:99). After 48 hours exposure, the antitumor effect are measured by the SRB methodology: cells are fixed by adding 50 μl of cold 50% (wt/vol) trichloroacetic acid (TCA) and incubated for 60 minutes at 4° C.
(§4) Plates are washed with deionised water and dried. One hundred μl of SRB solution (0.4% wt/vol in 1% acetic acid) is added to each microtiter well and incubated for 10 minutes at room temperature. Unbound SRB is removed by washing with 1% acetic acid. Plates are air dried and bound stain is solubilized with Tris buffer. Optical densities are read on a automated spectrophotometric plate reader at a single wavelength of 490 nm.
(§5) The values for mean+/−SD of data from triplicate wells are calculated.
(§6) Some parameters for cellular responses can be calculated: GI=growth inhibition, TGI=total growth inhibition (cytostatic effect) and LC=cell killing (cytotoxic effect).

SK-BR3 = assay: SRB colorimetric cell growth inhibition assay, SK-BR3; conditions: for GI50 / CC50: Homo sapiens, SK-BR-3, 48 h; for CC50: read-out: LC50; for TGI: SK-BR3 cells, total growth inhibition, SRB, 48 hours exposure
Protocol: as §1, §2, §3, §4, §5, §6

IGROV = assay: SRB colorimetric cell growth inhibition assay, IGROV; conditions: for GI50 / CC50: Homo sapiens, IGROV, 48 h; for CC50: read-out: LC50; for TGI: IGROV cells, total growth inhibition, SRB, 48 hours exposure
Protocol: as §1, §2, §3, §4, §5, §6

IGROV-ET = assay: SRB colorimetric cell growth inhibition assay, IGROV-ET; conditions: for GI50 / CC50: Homo sapiens, 48 h; for CC50: read-out: LC50; for TGI: IGROV-ET cells, total growth inhibition, SRB, 48 hours exposure
Protocol: as §1, §2, §3, §4, §5, §6

SK-MEL-28 = assay: SRB colorimetric cell growth inhibition assay, SK-MEL-28; conditions: for GI50 / CC50: Homo sapiens, SK-MEL-28, 48 h; for CC50: read-out: LC50; for TGI: SK-MEL-28 cells, total growth inhibition, SRB, 48 hours exposure
Protocol: as §1, §2, §3, §4, §5, §6

PANC1 = assay: SRB colorimetric cell growth inhibition assay, PANC1; conditions: for GI50 / CC50: Homo sapiens, PANC-1, 48 h; for CC50: read-out: LC50; for TGI: PANC1 cells, total growth inhibition, SRB, 48 hours exposure
Protocol: as §1, §2, §3, §4, §5, §6

A549 = assay: SRB colorimetric cell growth inhibition assay, A549; conditions: for TGI: A549 cells, total growth inhibition, SRB, 48 hours exposure; for GI50 / CC50: Homo sapiens, A549, 48 h; for CC50: read-out: LC50
Protocol: as §1, §2, §3, §4, §5, §6

HT29 = assay: SRB colorimetric cell growth inhibition assay, HT29; conditions: for TGI: HT29 cells, total growth inhibition, SRB, 48 hours exposure; for GI50 / CC50: Homo sapiens, HT-29, 48 h; for CC50: read-out: LC50
Protocol: as §1, §2, §3, §4, §5, §6

K562 = assay: SRB colorimetric cell growth inhibition assay, K562; conditions: for GI50 / CC50: Homo sapiens, K562, 48 h; for CC50: read-out: LC50; for TGI: K562 cells, total growth inhibition, SRB, 48 hours exposure
Protocol: as §1, §2, §3, §4, §5, §6

LOVO-DOX = assay: SRB colorimetric cell growth inhibition assay, LOVO-DOX; conditions: for GI50 / CC50: Homo sapiens, 48 h; for CC50: read-out: LC50; for TGI: LOVO-DOX cells, total growth inhibition, SRB, 48 hours exposure
Protocol: as §1, §2, §3, §4, §5, §6

DU145 = assay: SRB colorimetric cell growth inhibition assay, DU145; conditions: for TGI: DU145 cells, total growth inhibition, SRB, 48 hours exposure; for GI50 / CC50: Homo sapiens, DU-145, 48 h; for CC50: read-out: LC50
Protocol: as §1, §2, §3, §4, §5, §6

LN-caP = assay: SRB colorimetric cell growth inhibition assay, LN-caP; conditions: for GI50 / CC50: Homo sapiens, LNCaP, 48 h; for CC50: read-out: LC50; for TGI: LN-caP cells, total growth inhibition, SRB, 48 hours exposure
Protocol: as §1, §2, §3, §4, §5, §6

LOVO = assay: SRB colorimetric cell growth inhibition assay, LOVO; conditions: for GI50 / CC50: Homo sapiens, LoVo, 48 h; for CC50: read-out: LC50; for TGI: LOVO cells, total growth inhibition, SRB, 48 hours exposure
Protocol: as §1, §2, §3, §4, §5, §6

HELA-APL = assay: SRB colorimetric cell growth inhibition assay, HELA-APL; conditions: for TGI: HELA-APL cells, total growth inhibition, SRB, 48 hours exposure; for GI50 / CC50: Homo sapiens, 48 h; for CC50: read-out: LC50
Protocol: as §1, §2, §3, §4, §5, §6

## COc1ccc(C[C@H]2C(=O)O[C@H](C)[C@H](NC(=O)[C@@H](CC(C)C)N(C)C(=O)[C@@H]3CCCN3C(=O)[C@H](C)O)C(=O)N[C@H](C(C)C)[C@@H](O)CC(=O)O[C@@H](C(C)C)C(=O)N[C@@H](CC(C)C)C(=O)N[C@@H](C)C(=O)N2C)cc1 [Compound 75, [N-Ala^4]-Tamandarin B] (H-[Lac]P[dNMeL]T[Hexanoyl(3S-OH,4R-NH2,5-Me)][Hiv]LA[NMeY](Me); ester 4-C)
HELA
  TGI: 3.60E−06 Molar
  GI50: 1180 nM
  CC50: ≥ 9840 nM
SK-BR3
  GI50: 789 nM
  CC50: ≥ 9840 nM
  TGI: 3.39E−06 Molar
IGROV
  GI50: 1990 nM
  CC50: ≥ 9840 nM
  TGI: 5.29E−06 Molar
IGROV-ET
  GI50: 6860 nM
  CC50: ≥ 9840 nM
  TGI: 9.84E−06 Molar
SK-MEL-28
  GI50: 1500 nM
  CC50: 8000 nM
  TGI: 3.46E−06 Molar
PANC1
  GI50: 3750 nM
  CC50: ≥ 9840 nM
  TGI: 9.84E−06 Molar
A549
  TGI: 9.84E−06 Molar
  GI50: 5850 nM
  CC50: ≥ 9840 nM
HT29
  TGI: 9.84E−06 Molar
  GI50: 4220 nM
  CC50: ≥ 9840 nM
K562
  GI50: 5870 nM
  CC50: ≥ 9840 nM
  TGI: 9.46E−06 Molar
LOVO-DOX
  GI50: ≥ 9840 nM
  CC50: ≥ 9840 nM
  TGI: 9.84E−06 Molar
DU145
  TGI: 4.95E−06 Molar
  GI50: 1810 nM
  CC50: ≥ 9840 nM
LN-caP
  GI50: 548 nM
  CC50: ≥ 9840 nM
  TGI: 2.97E−06 Molar
LOVO
  GI50: 3550 nM
  CC50: ≥ 9840 nM
  TGI: 9.84E−06 Molar
HELA-APL
  TGI: 9.84E−06 Molar
  GI50: ≥ 9840 nM
  CC50: ≥ 9840 nM

## CC(C)C[C@@H]1NC(=O)[C@H](C(C)C)OC(=O)C[C@H](O)[C@@H](C(C)C)NC(=O)[C@@H](NC(=O)[C@@H](CC(C)C)N(C)C(=O)[C@@H]2CCCN2C(=O)[C@H](C)O)[C@@H](C)OC(=O)[C@H](Cc2ccc3ccccc3c2)N(C)C(=O)[C@@H]2CCCN2C1=O [Compound 93, [2-Naphthylala^5]-Tamandarin B] (H-[Lac]P[dNMeL]T[Hexanoyl(3S-OH,4R-NH2,5-Me)][Hiv]LP[NMe2Nal]; ester 4-C)
HELA
  TGI: 9.79E−09 Molar
  GI50: 2.81 nM
  CC50: 54.9 nM
SK-BR3
  GI50: 1.83 nM
  CC50: 4650 nM
  TGI: 1.89E−08 Molar
IGROV
  GI50: 2.09 nM
  CC50: 666 nM
  TGI: 1.28E−08 Molar
IGROV-ET
  GI50: 159 nM
  CC50: 2810 nM
  TGI: 6.54E−07 Molar
SK-MEL-28
  GI50: 4.14 nM
  CC50: 87.9 nM
  TGI: 1.52E−08 Molar
PANC1
  GI50: 6.24 nM
  CC50: 9410 nM
  TGI: 9.00E−08 Molar
A549
  TGI: 4.86E−08 Molar
  GI50: 6.96 nM
  CC50: 595 nM
HT29
  TGI: 6.98E−08 Molar
  GI50: 4.6 nM
  CC50: 5580 nM
K562
  GI50: 20 nM
  CC50: 198 nM
  TGI: 4.73E−08 Molar
LOVO-DOX
  GI50: 429 nM
  CC50: 9410 nM
  TGI: 2.33E−06 Molar
DU145
  TGI: 4.39E−09 Molar
  GI50: 2.17 nM
  CC50: 8.83 nM
LN-caP
  GI50: 1.98 nM
  CC50: 9.7 nM
  TGI: 4.33E−09 Molar
LOVO
  GI50: 6.84 nM
  CC50: 2490 nM
  TGI: 4.27E−08 Molar
HELA-APL
  TGI: 1.68E−07 Molar
  GI50: 36.4 nM
  CC50: 2280 nM
